Measured values published in paper PMC10254233, “Synthesis and In Vitro Biological Evaluation of p-Carborane-Based Di-tert-butylphenol Analogs” (Molecules, 2023).

What was measured:
[1] = test system: MDA-MB-231 triple-negative breast adenocarcinoma; assay: Cell viability, MTT assay, MDA-MB-231; assay type: cell-based, human; settings: 72 h, mean ± SD
Protocol: Five human cell lines (A375 melanoma, A549 lung adenocarcinoma, HCT116 and HT29 colorectal carcinoma, MDA-MB-231 triple-negative breast adenocarcinoma) were used to study the antitumor effects of the di-tert-butylphenols and their respective carborane analogs. All selected cell lines were derived from inflammation-associated tumors.
After the incubation period, the supernatant was discarded from the wells, and the cells were washed two times with 200 µL of PBS. Next, MTT solution at a final concentration of 0.5 mg/mL was added and incubated at 37 °C until purple formazan crystals were formed (30 min to one hour). After incubation, the dye was discarded. In order to dissolve the formed formazan crystals DMSO was added, and the absorbance was measured at λmax = 540 nm, with the reference/background wavelength of 670 nm. All results are expressed as a percentage of the control value which was arbitrary set to 100%. After 72 h treatment, cells were washed with 200 µL of PBS and fixed with 4% paraformaldehyde (PFA) for 15 min at room temperature (RT). Next, cells were stained with 1% CV solution. After 20 min, cells were washed in tap water and dried on air. Dye was dissolved in 33% acetic acid and the absorbance was measured at λmax = 540 nm, with the reference/background wavelength of 670 nm. Results were expressed as a percentage of the control value which was arbitrary set to 100%.
1. General methods, materials, and procedures
1.1.1. Reagents and cells
Reagents and cells were obtained from following manufacturers: Capricorn Scientific GmbH (Hessen, Germany) – Culture medium RPMI-1640, Dulbecco's Modified Eagle Medium (DMEM), and fetal bovine serum (FBS). Serva (Heidelberg, Germany) – Paraformaldehyde (PFA). Sigma (St. Louis, MO, USA) – Ethylenediaminetetraacetic acid (EDTA), Dimethyl sulfoxide (DMSO), chloroquine, CV, Triton X-100, RNase, PI, PBS, 3-MA, CFSE, and fluorescent mounting medium. AppliChem (MO, USA) –MTT. Thermo Fisher Scientific (Waltham, MA, USA) – DHR. R&D Systems (Minneapolis, MN, USA) – ApoStat. BD (Pharmingen, San Diego, SAD) – Annexin V-FITC (AnnV). Biological Industries (Cromwell, CT, USA) – Penicillin Streptomycin solution. American Type Culture Collection (ATCC, Manassas, Virginia, USA) – Human lung carcinoma (A549), human breast adenocarcinoma (MDA-MB-231), human colorectal ade-nocarcinoma (HT-29), human colorectal carcinoma (HCT116) and human melanoma (A375).
Cell lines (A375, HCT116, HT-29 and MDA-MB-231) were cultivated in HEPES-buffered RPMI-1640 medium while A549 cell line was cultivated in Dulbecco's Modified Eagle Medium (DMEM) which were previously supplemented with 10% heat-inactivated FBS, penicillin (100 units/mL), and streptomycin (100 μg/mL). All cells were kept at 37 °C in a humidified atmosphere with 5% CO2. For viability determi-nation cells were seeded at following densities in 96-well plates: 4 x 10^3 cells/well (A375, HT-29 and MDA-MB-231), 5 x 10^3 cells/well (HCT116), and 3 x 10^3 cells/well (A549). […]
Afterwards, cells were washed with phosphate-buffered saline (PBS) and stained with AnnV (15 μg/mL) and PI (15 μg/mL). After 15 min incubation at room temperature (RT) protected from light the cells were resuspended in AnnV-binding buffer and analysed using flow cytom-etry. HCT116 cells were incubated with pan-caspase inhibitor Apostat for 30 min at 37 °C to determine whether detected apoptosis was mediated by caspase activation. Afterwards, cells were washed with PBS and analyzed using flow cytometry. HCT116 cells were stained with 1 µg/mL of AO solution for 15 min at 37 °C to detect the presence of autophagic cell death. Afterwards cells were washed with PBS, resuspended and analyzed by flow cytometry (CyFlow® Space Partec using the PartecFloMax® software

[2] = NMR spectroscopic stability study in aqueous DMSO-d6; assay type: physicochemical; settings: room temperature, in air, four weeks, 1H and 11B{1H} NMR
Excerpt: Solubility and chemical stability in organic solvents, such as aqueous dimethyl sulfoxide (DMSO), are crucial for biological investigations. Therefore, the stability of the p-carborane-containing compounds R-830-Cb, S-2474-Cb, KME-4-Cb, and E-5110-Cb in aqueous DMSO-d6 at room temperature in air was studied by ^1H- and ^11B{^1H}-NMR spectroscopy over four weeks and confirmed that all compounds are stable (see Supplementary Materials, Figure S24).

human recombinant COX-2 = molecular target: T1, human recombinant COX-2 (Homo sapiens, UniProt P35354); assay: COX Fluorescent Inhibitor Screening Assay, COX-2; assay type: biochemical; settings: in duplicate
T1 construct: purchased Cayman Chemical Company
T1 sequence (P35354 18-604): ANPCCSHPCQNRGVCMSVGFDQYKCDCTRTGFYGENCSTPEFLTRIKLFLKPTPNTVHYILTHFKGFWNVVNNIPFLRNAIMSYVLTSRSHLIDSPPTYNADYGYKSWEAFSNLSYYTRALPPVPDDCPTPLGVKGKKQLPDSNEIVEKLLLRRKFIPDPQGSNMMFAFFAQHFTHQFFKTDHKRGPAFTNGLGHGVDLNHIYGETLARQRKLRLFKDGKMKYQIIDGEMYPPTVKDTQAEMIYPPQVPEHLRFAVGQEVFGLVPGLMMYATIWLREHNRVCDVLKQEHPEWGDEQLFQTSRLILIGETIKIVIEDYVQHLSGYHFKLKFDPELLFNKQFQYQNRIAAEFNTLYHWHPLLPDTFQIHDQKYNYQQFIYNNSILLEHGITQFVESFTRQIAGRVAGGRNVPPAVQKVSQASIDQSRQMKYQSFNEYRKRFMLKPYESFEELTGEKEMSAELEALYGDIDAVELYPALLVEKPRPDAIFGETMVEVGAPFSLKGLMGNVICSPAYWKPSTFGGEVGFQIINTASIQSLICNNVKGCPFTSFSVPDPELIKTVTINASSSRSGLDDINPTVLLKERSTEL
Protocol: COX inhibition activity against ovine COX-1 and human COX-2 was determined using the fluorescence-based COX assay COX Fluorescent Inhibitor Screening Assay Kit (Cayman Chemical Company, Ann Arbor, MI, USA) according to the manufacturer’s instructions as previously reported by us. All compounds were screened at a concentration of 100 µM in duplicate.

Row | IC50 [1] [µM] | stability in aqueous DMSO-d6 [2] | Substance | % Inhibition at 100 µM COX-2 (human recombinant COX-2)
1 |  | stable | (3E)-1-Hydroxy-12-(methylene-[1′-methoxypyrrolidine-2′-one])-1,12-dicarba-closo-dodecaborane(12) [Compound E-5110-Cb] | n.i. (n.i. = no inhibition (%inhibition below 5%))
2 | > 200 | stable | (3E)-1-Hydroxy-12-(methylene-[2′-ethylisothiazolidine-1′,1′-dioxide])-1,12-dicarba-closo-dodecaborane(12) [Compound S-2474-Cb] | n.i. (n.i. = no inhibition (%inhibition below 5%))
3 | 120 ± 3.9 | stable | (3E)-1-Hydroxy-12-(methylene-[dihydrofurane-2′(3H)-one])-1,12-dicarba-closo-dodecaborane(12) [KME-4-Cb] | n.i. (n.i. = no inhibition (%inhibition below 5%))

Row | Substance | IC50 [1] [µM] | stability in aqueous DMSO-d6 [2] | % Inhibition at 100 µM COX-2 (human recombinant COX-2)
4 | 1-Hydroxy-12-(thiophen-2′-carbonyl)-1,12-dicarba-closo-dodecaborane(12) [Compound R-830-Cb] | 46.5 ± 0.1 | stable | 6%
